Results taken from PubChem BioAssay AID228 (DTP/NCI, 2004).
Several values for one entry are separate records, joined by “and”; a condition that tells them apart may be missing. Equal values may be shown once. Inconclusive results are not listed.

System: BDF1 mice, Friend leukemia sc, tumor weight T/C
Experiment: NCI In Vivo Anticancer Drug Screen. Data for tumor model Friend Virus Leukemia (Solid) (subcutaneous) in B6D2F1 (BDF1) mice
Conditions: endpoint: mean tumor weight, schedule: Q01DX011 (ip), higher = larger tumour
Procedure: The antitumor activity of compounds was measured in mice bearing transplantable tumors. Survival or tumor size were measured and the results are expressed as the measurement made in the treated group (T) divided by the measurement made in the vehicle treated control group (C). The tumor model used in this assay is Friend Virus Leukemia (Solid) (subcutaneous) in B6D2F1 (BDF1) mice

[1] = dose: 4.0 mg/kg/injection, vehicle: carboxymethylcellulose (CMC)
[2] = dose: 6.0 mg/kg/injection, vehicle: carboxymethylcellulose (CMC)
[3] = dose: 25.0 mg/kg/injection, vehicle: carboxymethylcellulose (CMC)
[4] = dose: 5.7 mg/kg/injection, vehicle: carboxymethylcellulose (CMC)
[5] = dose: 11.5 mg/kg/injection, vehicle: carboxymethylcellulose (CMC)
[6] = dose: 0.75 mg/kg/injection, vehicle: saline
[7] = dose: 1.5 mg/kg/injection, vehicle: saline

Question: What does the source list for `CS(=O)(=O)OCCCCOS(C)(=O)=O`?
Answer: T/C (dose: 6.62 mg/kg/injection, vehicle: carboxymethylcellulose (CMC)): 107 % of control; T/C (dose: 7.0 mg/kg/injection, vehicle: carboxymethylcellulose (CMC)): 65 % of control; T/C (dose: 13.25 mg/kg/injection, vehicle: carboxymethylcellulose (CMC)): 68 % of control; T/C (dose: 14.0 mg/kg/injection, vehicle: carboxymethylcellulose (CMC)): 91 % of control; T/C (dose: 26.5 mg/kg/injection, vehicle: carboxymethylcellulose (CMC)): 110 % of control; T/C (dose: 27.0 mg/kg/injection, vehicle: carboxymethylcellulose (CMC)): 55 % of control; T/C (dose: 53.0 mg/kg/injection, vehicle: carboxymethylcellulose (CMC)): 66 % of control

Question: For `Cc1nc(N2CC2)nc(N2CC2)c1[N+](=O)[O-]`, which T/C (dose: 2.0 mg/kg/injection, vehicle: carboxymethylcellulose (CMC)) is on record?
Answer: Its T/C is 70 % of control.

Question: And the T/C (dose: 3.0 mg/kg/injection, vehicle: carboxymethylcellulose (CMC))?
Answer: The T/C was 39 % of control.

Question: And the T/C [1]?
Answer: Its T/C is 41 % of control.

Question: And the T/C [2]?
Answer: Its T/C is 63 % of control and 40 % of control.

Question: How did the T/C (dose: 12.5 mg/kg/injection, vehicle: carboxymethylcellulose (CMC)) turn out when `O=C(O)C1(NO)CCCC1` was run?
Answer: The T/C was 98 % of control.

Question: And the T/C [3]?
Answer: Its T/C is 78 % of control.

Question: What about the T/C (dose: 100.0 mg/kg/injection, vehicle: carboxymethylcellulose (CMC)) of the same molecule?
Answer: The T/C was 18 % of control and 34 % of control.

Question: Which results are given for `O=S(=O)(O)c1cccnc1`?
Answer: T/C (dose: 39.0 mg/kg/injection, vehicle: carboxymethylcellulose (CMC)): 86 % of control and 101 % of control; T/C (dose: 157.0 mg/kg/injection, vehicle: carboxymethylcellulose (CMC)): 98 % of control and 110 % of control

Question: For `CSc1ncnc2nc[nH]c12`, which T/C [4] is on record?
Answer: The T/C was 155 % of control.

Question: And the T/C [5]?
Answer: The T/C was 115 % of control.

Question: What about the T/C (dose: 22.5 mg/kg/injection, vehicle: carboxymethylcellulose (CMC)) of the same molecule?
Answer: Its T/C is 59 % of control and 81 % of control.

Question: And the T/C (dose: 45.0 mg/kg/injection, vehicle: carboxymethylcellulose (CMC))?
Answer: Its T/C is 35 % of control and 42 % of control.

Question: What about the T/C (dose: 90.0 mg/kg/injection, vehicle: carboxymethylcellulose (CMC)) of the same molecule?
Answer: The T/C was 39 % of control.

Question: What does the source list for `O=C(O)CC(O)(CC(=O)O)C(=O)O.[Ga]`?
Answer: T/C [3]: 108 % of control; T/C (dose: 50.0 mg/kg/injection, vehicle: carboxymethylcellulose (CMC)): 104 % of control

Question: Which results are given for `CC(/C=N\N=C(N)N)=N/N=C(N)N`?
Answer: T/C [4]: 111 % of control; T/C [5]: 70 % of control; T/C (dose: 23.0 mg/kg/injection, vehicle: carboxymethylcellulose (CMC)): 96 % of control

Question: How did the T/C (dose: 0.37 mg/kg/injection, vehicle: saline) turn out when `CN(Cc1cnc2nc(N)nc(N)c2n1)c1ccc(C(=O)N[C@@H](CCC(=O)O)C(=O)O)cc1` was run?
Answer: The T/C was 68 % of control.

Question: And the T/C (dose: 0.5 mg/kg/injection, vehicle: carboxymethylcellulose (CMC))?
Answer: The T/C was 44 % of control.

Question: What about the T/C [6] of the same molecule?
Answer: Its T/C is 91 % of control.

Question: And the T/C (dose: 0.8 mg/kg/injection, vehicle: carboxymethylcellulose (CMC))?
Answer: Its T/C is 71 % of control and 88 % of control.

Question: And the T/C (dose: 1.4 mg/kg/injection, vehicle: carboxymethylcellulose (CMC))?
Answer: The T/C was 36 % of control.

Question: What about the T/C (dose: 1.5 mg/kg/injection, vehicle: carboxymethylcellulose (CMC)) of the same molecule?
Answer: The T/C was 16 % of control.

Question: What about the T/C [7] of the same molecule?
Answer: Its T/C is 49 % of control.

Question: Which T/C [1] does the source give for `O=C(Nc1ccc(C2=NCCCN2)cc1)c1ccc(NC(=O)c2ccc(C3=NCCCN3)cc2)cc1` here?
Answer: The T/C was 49 % of control.

Question: And the T/C [2]?
Answer: Its T/C is 9 % of control.

Question: What about the T/C (dose: 8.0 mg/kg/injection, vehicle: carboxymethylcellulose (CMC)) of the same molecule?
Answer: The T/C was 1 % of control.

Question: How did the T/C (dose: 15.0 mg/kg/injection, vehicle: carboxymethylcellulose (CMC)) turn out when `c1ccc2c(c1)ccc1cc3c(ccc4ccccc43)cc12` was run?
Answer: Its T/C is 90 % of control.

Question: And the T/C (dose: 31.0 mg/kg/injection, vehicle: carboxymethylcellulose (CMC))?
Answer: Its T/C is 86 % of control.

Question: And the T/C (dose: 62.5 mg/kg/injection, vehicle: carboxymethylcellulose (CMC))?
Answer: The T/C was 39 % of control.

Question: What about the T/C (dose: 63.0 mg/kg/injection, vehicle: carboxymethylcellulose (CMC)) of the same molecule?
Answer: Its T/C is 93 % of control.

Question: What about the T/C (dose: 250.0 mg/kg/injection, vehicle: carboxymethylcellulose (CMC)) of the same molecule?
Answer: The T/C was 52 % of control.

Question: What about the T/C (dose: 500.0 mg/kg/injection, vehicle: carboxymethylcellulose (CMC)) of the same molecule?
Answer: The T/C was 29 % of control.

Question: With `CC(C)CCCCCCCCCCCCC(=O)NCC(=O)NC1C(O)C(O)C(Nc2ncnc3nc[nH]c23)OC1C(O)CO` (stereo not given) as the molecule, how does the T/C (dose: 0.4 mg/kg/injection, vehicle: carboxymethylcellulose (CMC)) read?
Answer: Its T/C is 93 % of control.

Question: And the T/C (dose: 0.6 mg/kg/injection, vehicle: carboxymethylcellulose (CMC))?
Answer: The T/C was 83 % of control.

Question: What about the T/C (dose: 0.9 mg/kg/injection, vehicle: carboxymethylcellulose (CMC)) of the same molecule?
Answer: The T/C was 52 % of control.

Question: What about the T/C (dose: 1.35 mg/kg/injection, vehicle: carboxymethylcellulose (CMC)) of the same molecule?
Answer: The T/C was 50 % of control.

Question: And the T/C (dose: 1.35 mg/kg/injection, vehicle: saline)?
Answer: Its T/C is 37 % of control.

Question: How did the T/C (dose: 10.0 mg/kg/injection, vehicle: carboxymethylcellulose (CMC)) turn out when `[I][Hg][CH2]C1COCC([CH2][Hg][I])O1.[I][Hg][CH2]C1COCC([CH2][Hg][I])O1` (stereo not given) was run?
Answer: The T/C was 75 % of control.

Question: What about the T/C (dose: 20.0 mg/kg/injection, vehicle: carboxymethylcellulose (CMC)) of the same molecule?
Answer: The T/C was 56 % of control.

Question: And the T/C (dose: 40.0 mg/kg/injection, vehicle: carboxymethylcellulose (CMC))?
Answer: The T/C was 77 % of control.

Question: And the T/C (dose: 80.0 mg/kg/injection, vehicle: carboxymethylcellulose (CMC))?
Answer: The T/C was 45 % of control.

Question: What does the source list for `NC(Cc1c[nH]c2ccc(N(CCCl)CCCl)cc12)C(=O)O` (stereo not given)?
Answer: T/C [6]: 37 % of control; T/C (dose: 1.0 mg/kg/injection, vehicle: carboxymethylcellulose (CMC)): 120 % of control; T/C [7]: 47 % of control; T/C (dose: 2.5 micrograms/kg/injection, vehicle: carboxymethylcellulose (CMC)): 71 % of control; T/C (dose: 5.0 micrograms/kg/injection, vehicle: carboxymethylcellulose (CMC)): 61 % of control; T/C (dose: 11.0 micrograms/kg/injection, vehicle: carboxymethylcellulose (CMC)): 86 % of control; T/C (dose: 22.0 micrograms/kg/injection, vehicle: carboxymethylcellulose (CMC)): 90 % of control; T/C (dose: 45.0 micrograms/kg/injection, vehicle: carboxymethylcellulose (CMC)): 52 % of control; T/C (dose: 90.0 micrograms/kg/injection, vehicle: carboxymethylcellulose (CMC)): 34 % of control; T/C (dose: 180.0 micrograms/kg/injection, vehicle: carboxymethylcellulose (CMC)): 40 % of control; T/C (dose: 370.0 micrograms/kg/injection, vehicle: carboxymethylcellulose (CMC)): 39 % of control

Question: What does the source list for `CCC(=O)NC1=C(N2CC2)C(=O)C(NC(=O)CC)=C(N2CC2)C1=O`?
Answer: T/C (dose: 0.39 mg/kg/injection, vehicle: carboxymethylcellulose (CMC)): 61 % of control; T/C (dose: 0.78 mg/kg/injection, vehicle: carboxymethylcellulose (CMC)): 48 % of control; T/C (dose: 1.56 mg/kg/injection, vehicle: carboxymethylcellulose (CMC)): 24 % of control; T/C (dose: 3.12 mg/kg/injection, vehicle: carboxymethylcellulose (CMC)): 7 % of control

Question: Which results are given for `Cc1ncc(CO)c(C)c1O`?
Answer: T/C (dose: 22.75 mg/kg/injection, vehicle: carboxymethylcellulose (CMC)): 54 % of control; T/C (dose: 45.5 mg/kg/injection, vehicle: carboxymethylcellulose (CMC)): 111 % of control; T/C (dose: 121.0 mg/kg/injection, vehicle: carboxymethylcellulose (CMC)): 84 % of control and 98 % of control; T/C (dose: 126.0 mg/kg/injection, vehicle: carboxymethylcellulose (CMC)): 112 % of control
